Patent US12215082B1 (priority 2023, dated 2025)

What follows are compounds tested on Mycobacterium tuberculosis H37Rv (susceptible) (assay: Resazurin Microplate Assay (REMA), anti-tubercular activity, H37Rv strain). Settings: 192 h, read-out: MIC Susceptible (H37Rv).
Format: cell-based

SMILES | MIC [µg/mL]
O=C(C[n+]1ccc(/C=N/O)cc1)c1ccc(F)cc1.[Br-] [Compound 3c, (E)-1-(2-(4-Fluorophenyl)-2-oxoethyl)-4-((hydroxyimino)methyl)pyridin-1-ium bromide] | 32
O=C(C[n+]1ccc(/C=N/O)cc1)c1ccccc1.[Br-] [Compound 3a, (E)-4-((Hydroxyimino)methyl)-1-(2-oxo-2-phenylethyl)pyridin-1-ium bromide] | 32
N#Cc1ccc(C(=O)C[n+]2ccc(/C=N/O)cc2)cc1.[Br-] [Compound 3d, (E)-1-(2-(4-Cyanophenyl)-2-oxoethyl)-4-((hydroxyimino)methyl)pyridin-1-ium bromide] | 16
O=C(C[n+]1ccc(/C=N/O)cc1)c1ccc(Br)cc1.[Br-] [Compound 3b, (E)-1-(2-(4-Bromophenyl)-2-oxoethyl)-4-((hydroxyimino)methyl)pyridin-1-ium bromide] | 32
O=C(C[n+]1ccc(/C=N/O)cc1)c1ccccc1[N+](=O)[O-].[Br-] [Compound 3e, (E)-4-((Hydroxyimino)methyl)-1-(2-(2-nitrophenyl)-2-oxoethyl)pyridin-1-ium bromide] | 64
